Reference: patent USRE38329E1, “Chelated complexes of paramagnetic metals with low toxicity” (Bracco Imaging S.p.A., priority 1997, dated 2003)

Test system: mouse
Assay: DL50 after intracerebroventricular administration to the mouse (neurotoxicity / molecular toxicity)
Type: in vivo
Excerpt: DL50 values after intracerebral administration (intracisternal, intracerebroventricular), for example in the mouse and in the rat, can therefore be taken as a highly sensitive index of the molecular toxicity of the contrast agent (Toxicology Letters, cited ref.). In particular, the intracerebroventricular administration seems to be the most sensitive to discriminate the neurotoxicity of the compounds (Proceedings of the 10th National Congress of the Italian Toxicology Society, Pavia, September 21-24th, 100, 1994).
The present invention relates to chelated complexes of paramagnetic metals characterized by an extremely favourable neurotoxicity profile. […] The compound described in example 1 (gadolinium complex of 10-[2-[[2-(2-hydroxyethoxy)ethyl]amino]-2-oxoethyl]-α,α′,α″-tris(hydroxymethyl)-1,4,7,10-tetraazacyclododecane-1,4,7-triacetic) acid has, for example, a DL50 of 0.23 mmol/kg after intracerebroventricular administration to the mouse. The compounds described in example 2 (gadolinium complex of α,α′,α″-tris (hydroxymethyl)-10-(2-hydroxypropyl)-1,4,7,10-tetraazacyclododecane-1,4,7-triacetic acid) and in Example 4 (Na^+Gd[THM-DOTA]^−) have a very good tolerability as well, with a DL50, after intracerebroventricular administration to the mouse, of 0.170 and 0.150 mmol/kg, respectively; the corresponding value for Gd-DOTA being 0.064 mmol/kg.

SMILES	DL50 after intracerebroventricular administration to the mouse [mmol/kg]
O=C([O-])CN1C[C@@H](CO)N(CC(=O)[O-])C[C@@H](CO)N(CC(=O)[O-])C[C@@H](CO)N(CC(=O)[O-])C[C@H]1CO.[Gd+3].[Na+] (relative stereo) [Example 4, Gadolinium complex of [2S-(2R*,5R*,8R*,11R*)]-2,5,8,11-tetra(hydroxymethyl)-1,4,7,10-tetraazacyclododecane-1,4,7,10-tetraacetic acid sodium salt (1:1)]	0.150
O=C(CN1CCN(C(CO)C(=O)[O-])CCN(C(CO)C(=O)[O-])CCN(C(CO)C(=O)[O-])CC1)NCCOCCO.[Gd+3] (stereo not drawn) [Example 1, Gadolinium complex of 10-[2-[[2-(2-hydroxyethoxy)ethyl]amino]-2-oxoethyl]-α,α′,α″-tris(hydroxymethyl)-1,4,7,10-tetraazacyclododecane-1,4,7-triacetic acid]	0.23
O=C([O-])CN1CCN(CC(=O)[O-])CCN(CC(=O)[O-])CCN(CC(=O)[O-])CC1.[Gd+3] [Gd-DOTA, reference compound]	0.064
